# From PubChem BioAssay (NCI)
#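 Exposure lasted 48 hours, with cells grown in 96-well plates and compounds tested at five concentrations. The concentration for 50% growth inhibition is given as GI50. TGI denotes the concentration required for complete inhibition of growth.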
# Assays:
# Assay in all cases: inhibition of tumour cell growth, NCI panel, 48 h
# 786-0 renal = test system: 786-0 renal
# A498 renal = test system: A498 renal
# A549 NSCLC = test system: A549 NSCLC
# ACHN renal = test system: ACHN renal
# BT-549 breast = test system: BT-549 breast
# CAKI-1 renal = test system: CAKI-1 renal
# CCRF-CEM leukemia = test system: CCRF-CEM leukemia
# COLO 205 colon = test system: COLO 205 colon
# DU-145 prostate = test system: DU-145 prostate
# EKVX NSCLC = test system: EKVX NSCLC
# HCC-2998 colon = test system: HCC-2998 colon
# HCT-116 colon = test system: HCT-116 colon
# HCT-15 colon = test system: HCT-15 colon
# HOP-62 NSCLC = test system: HOP-62 NSCLC
# HS 578T breast = test system: HS 578T breast
# HT29 colon = test system: HT29 colon
# IGROV1 ovarian = test system: IGROV1 ovarian
# K-562 leukemia = test system: K-562 leukemia
# KM12 colon = test system: KM12 colon
# LOX IMVI melanoma = test system: LOX IMVI melanoma
# M14 melanoma = test system: M14 melanoma
# MALME-3M melanoma = test system: MALME-3M melanoma
# MCF7 breast = test system: MCF7 breast
# MDA-MB-231 breast = test system: MDA-MB-231 breast
# MDA-MB-435 = test system: MDA-MB-435
# MOLT-4 leukemia = test system: MOLT-4 leukemia
# NCI-H226 lung = test system: NCI-H226 lung
# NCI-H23 lung = test system: NCI-H23 lung
# NCI-H460 lung = test system: NCI-H460 lung
# NCI-H522 lung = test system: NCI-H522 lung
# NCI/ADR-RES ovarian = test system: NCI/ADR-RES ovarian
# OVCAR-3 ovarian = test system: OVCAR-3 ovarian
# OVCAR-4 ovarian = test system: OVCAR-4 ovarian
# OVCAR-5 ovarian = test system: OVCAR-5 ovarian
# OVCAR-8 ovarian = test system: OVCAR-8 ovarian
# PC-3 prostate = test system: PC-3 prostate
# RPMI-8226 leukemia = test system: RPMI-8226 leukemia
# RXF 393 renal = test system: RXF 393 renal
# SF-268 CNS = test system: SF-268 CNS
# SF-295 CNS = test system: SF-295 CNS
# SF-539 CNS = test system: SF-539 CNS
# SK-MEL-2 melanoma = test system: SK-MEL-2 melanoma
# SK-MEL-28 melanoma = test system: SK-MEL-28 melanoma
# SK-MEL-5 melanoma = test system: SK-MEL-5 melanoma
# SK-OV-3 ovarian = test system: SK-OV-3 ovarian
# SN12C renal = test system: SN12C renal
# SNB-19 CNS = test system: SNB-19 CNS
# SNB-75 CNS = test system: SNB-75 CNS
# SW-620 colon = test system: SW-620 colon
# TK-10 renal = test system: TK-10 renal
# U251 CNS = test system: U251 CNS
# UACC-257 melanoma = test system: UACC-257 melanoma
# UACC-62 melanoma = test system: UACC-62 melanoma
# UO-31 renal = test system: UO-31 renal
# HOP-92 NSCLC = test system: HOP-92 NSCLC
# T-47D breast = test system: T-47D breast
structure (smiles),measurement,setting,value
Nc1ncnc2sc(=S)c3c(c12)CCC3,GI50,786-0 renal,46.6 µM
same,TGI,786-0 renal,> 100 µM
same,GI50,A498 renal,28.2 µM
same,TGI,A498 renal,79.5 µM
same,GI50,A549 NSCLC,44.8 µM
same,TGI,A549 NSCLC,> 100 µM
same,GI50,ACHN renal,26.3 µM
same,TGI,ACHN renal,> 100 µM
same,GI50,BT-549 breast,22.5 µM
same,TGI,BT-549 breast,68.2 µM
same,GI50,CAKI-1 renal,30.9 µM
same,TGI,CAKI-1 renal,> 100 µM
same,GI50,CCRF-CEM leukemia,27.1 µM
same,TGI,CCRF-CEM leukemia,79.5 µM
same,GI50,COLO 205 colon,25.1 µM
same,TGI,COLO 205 colon,62.6 µM
same,GI50,DU-145 prostate,19.1 µM
same,TGI,DU-145 prostate,57.4 µM
same,GI50,EKVX NSCLC,18.9 µM
same,TGI,EKVX NSCLC,58.8 µM
same,GI50,HCC-2998 colon,35 µM
same,TGI,HCC-2998 colon,> 100 µM
same,GI50,HCT-116 colon,31.8 µM
same,TGI,HCT-116 colon,> 100 µM
same,GI50,HCT-15 colon,38.2 µM
same,TGI,HCT-15 colon,> 100 µM
same,GI50,HOP-62 NSCLC,46.4 µM
same,TGI,HOP-62 NSCLC,> 100 µM
same,GI50,HS 578T breast,34.5 µM
same,TGI,HS 578T breast,99.7 µM
same,GI50,HT29 colon,29.8 µM
same,TGI,HT29 colon,62.8 µM
same,GI50,IGROV1 ovarian,50.5 µM
same,TGI,IGROV1 ovarian,> 100 µM
same,GI50,K-562 leukemia,36.1 µM
same,TGI,K-562 leukemia,> 100 µM
same,GI50,KM12 colon,40.7 µM
same,TGI,KM12 colon,> 100 µM
same,GI50,LOX IMVI melanoma,31.8 µM
same,TGI,LOX IMVI melanoma,> 100 µM
same,GI50,M14 melanoma,42.7 µM
same,TGI,M14 melanoma,> 100 µM
same,GI50,MALME-3M melanoma,66.4 µM
same,TGI,MALME-3M melanoma,> 100 µM
same,GI50,MCF7 breast,25.3 µM
same,TGI,MCF7 breast,92.8 µM
same,GI50,MDA-MB-231 breast,30.4 µM
same,TGI,MDA-MB-231 breast,> 100 µM
same,GI50,MDA-MB-435,46.9 µM
same,TGI,MDA-MB-435,> 100 µM
same,GI50,MOLT-4 leukemia,23.2 µM
same,TGI,MOLT-4 leukemia,69.7 µM
same,GI50,NCI-H226 lung,28.7 µM
same,TGI,NCI-H226 lung,> 100 µM
same,GI50,NCI-H23 lung,21.1 µM
same,TGI,NCI-H23 lung,56.8 µM
same,GI50,NCI-H460 lung,35.1 µM
same,TGI,NCI-H460 lung,> 100 µM
same,GI50,NCI-H522 lung,47.1 µM
same,TGI,NCI-H522 lung,> 100 µM
same,GI50,NCI/ADR-RES ovarian,30.1 µM
same,TGI,NCI/ADR-RES ovarian,> 100 µM
same,GI50,OVCAR-3 ovarian,30.7 µM
same,TGI,OVCAR-3 ovarian,> 100 µM
same,GI50,OVCAR-4 ovarian,69.8 µM
same,TGI,OVCAR-4 ovarian,> 100 µM
same,GI50,OVCAR-5 ovarian,42 µM
same,TGI,OVCAR-5 ovarian,> 100 µM
same,GI50,OVCAR-8 ovarian,37.7 µM
same,TGI,OVCAR-8 ovarian,> 100 µM
same,GI50,PC-3 prostate,32.1 µM
same,TGI,PC-3 prostate,> 100 µM
same,GI50,RPMI-8226 leukemia,16.8 µM
same,TGI,RPMI-8226 leukemia,55.3 µM
same,GI50,RXF 393 renal,26.9 µM
same,TGI,RXF 393 renal,55.1 µM
same,GI50,SF-268 CNS,26.9 µM
same,TGI,SF-268 CNS,75.6 µM
same,GI50,SF-295 CNS,39.6 µM
same,TGI,SF-295 CNS,> 100 µM
same,GI50,SF-539 CNS,17 µM
same,TGI,SF-539 CNS,52.8 µM
same,GI50,SK-MEL-2 melanoma,81.8 µM
same,TGI,SK-MEL-2 melanoma,> 100 µM
same,GI50,SK-MEL-28 melanoma,> 100 µM
same,TGI,SK-MEL-28 melanoma,> 100 µM
same,GI50,SK-MEL-5 melanoma,4.81 µM
same,TGI,SK-MEL-5 melanoma,29.8 µM
same,GI50,SK-OV-3 ovarian,89 µM
same,TGI,SK-OV-3 ovarian,> 100 µM
same,GI50,SN12C renal,32.8 µM
same,TGI,SN12C renal,> 100 µM
same,GI50,SNB-19 CNS,29.2 µM
same,TGI,SNB-19 CNS,82.9 µM
same,GI50,SNB-75 CNS,88.7 µM
same,TGI,SNB-75 CNS,> 100 µM
same,GI50,SW-620 colon,33.5 µM
same,TGI,SW-620 colon,> 100 µM
same,GI50,TK-10 renal,39.6 µM
same,TGI,TK-10 renal,> 100 µM
same,GI50,U251 CNS,45.8 µM
same,TGI,U251 CNS,> 100 µM
same,GI50,UACC-257 melanoma,> 100 µM
same,TGI,UACC-257 melanoma,> 100 µM
same,GI50,UACC-62 melanoma,27.8 µM
same,TGI,UACC-62 melanoma,85.2 µM
same,GI50,UO-31 renal,43.8 µM
same,TGI,UO-31 renal,> 100 µM
C=CCC(N[C@H](CO)C(C)C)c1cn(C(=O)OCC)c2ccccc12 (some centres undefined),GI50,786-0 renal,28.4 µM
same,TGI,786-0 renal,72.7 µM
same,GI50,A549 NSCLC,24.9 µM
same,TGI,A549 NSCLC,82 µM
same,GI50,ACHN renal,32.1 µM
same,TGI,ACHN renal,> 100 µM
same,GI50,BT-549 breast,24.7 µM
same,TGI,BT-549 breast,67.8 µM
same,GI50,CAKI-1 renal,13.8 µM
same,TGI,CAKI-1 renal,41.1 µM
same,GI50,CCRF-CEM leukemia,22.4 µM
same,TGI,CCRF-CEM leukemia,70.2 µM
same,GI50,COLO 205 colon,25.4 µM
same,TGI,COLO 205 colon,65.9 µM
same,GI50,DU-145 prostate,30.1 µM
same,TGI,DU-145 prostate,> 100 µM
same,GI50,EKVX NSCLC,22.9 µM
same,TGI,EKVX NSCLC,77 µM
same,GI50,HCC-2998 colon,17 µM
same,TGI,HCC-2998 colon,33.6 µM
same,GI50,HCT-116 colon,24.2 µM
same,TGI,HCT-116 colon,68.8 µM
same,GI50,HCT-15 colon,32.4 µM
same,TGI,HCT-15 colon,> 100 µM
same,GI50,HOP-62 NSCLC,28.6 µM
same,TGI,HOP-62 NSCLC,89.1 µM
same,GI50,HOP-92 NSCLC,14.1 µM
same,TGI,HOP-92 NSCLC,45.6 µM
same,GI50,HS 578T breast,22.7 µM
same,TGI,HS 578T breast,> 100 µM
same,GI50,HT29 colon,36.1 µM
same,TGI,HT29 colon,> 100 µM
same,GI50,IGROV1 ovarian,7.81 µM
same,TGI,IGROV1 ovarian,57.1 µM
same,GI50,K-562 leukemia,11.1 µM
same,TGI,K-562 leukemia,25.8 µM
same,GI50,KM12 colon,21.7 µM
same,TGI,KM12 colon,59.7 µM
same,GI50,LOX IMVI melanoma,19.4 µM
same,TGI,LOX IMVI melanoma,49.5 µM
same,GI50,M14 melanoma,21.3 µM
same,TGI,M14 melanoma,46 µM
same,GI50,MCF7 breast,35 µM
same,TGI,MCF7 breast,> 100 µM
same,GI50,MDA-MB-231 breast,13.2 µM
same,TGI,MDA-MB-231 breast,31.2 µM
same,GI50,MDA-MB-435,20.3 µM
same,TGI,MDA-MB-435,50.5 µM
same,GI50,MOLT-4 leukemia,15.4 µM
same,TGI,MOLT-4 leukemia,34.7 µM
same,GI50,NCI-H23 lung,19.1 µM
same,TGI,NCI-H23 lung,49.3 µM
same,GI50,NCI-H460 lung,32.4 µM
same,TGI,NCI-H460 lung,> 100 µM
same,GI50,NCI-H522 lung,17.9 µM
same,TGI,NCI-H522 lung,40.2 µM
same,GI50,NCI/ADR-RES ovarian,21.8 µM
same,TGI,NCI/ADR-RES ovarian,61 µM
same,GI50,OVCAR-3 ovarian,16.6 µM
same,TGI,OVCAR-3 ovarian,43.3 µM
same,GI50,OVCAR-4 ovarian,49.6 µM
same,TGI,OVCAR-4 ovarian,> 100 µM
same,GI50,OVCAR-5 ovarian,48.6 µM
same,TGI,OVCAR-5 ovarian,> 100 µM
same,GI50,OVCAR-8 ovarian,21.7 µM
same,TGI,OVCAR-8 ovarian,48.2 µM
same,GI50,PC-3 prostate,15.9 µM
same,TGI,PC-3 prostate,43.9 µM
same,GI50,RPMI-8226 leukemia,13.3 µM
same,TGI,RPMI-8226 leukemia,40.7 µM
same,GI50,RXF 393 renal,18.9 µM
same,TGI,RXF 393 renal,54.2 µM
same,GI50,SF-268 CNS,33.4 µM
same,TGI,SF-268 CNS,> 100 µM
same,GI50,SF-295 CNS,15.9 µM
same,TGI,SF-295 CNS,38.1 µM
same,GI50,SF-539 CNS,28.2 µM
same,TGI,SF-539 CNS,69.9 µM
same,GI50,SK-MEL-2 melanoma,42.3 µM
same,TGI,SK-MEL-2 melanoma,> 100 µM
same,GI50,SK-MEL-28 melanoma,53.6 µM
same,TGI,SK-MEL-28 melanoma,> 100 µM
same,GI50,SK-MEL-5 melanoma,10.2 µM
same,TGI,SK-MEL-5 melanoma,23.7 µM
same,GI50,SK-OV-3 ovarian,81.3 µM
same,TGI,SK-OV-3 ovarian,> 100 µM
same,GI50,SN12C renal,19.7 µM
same,TGI,SN12C renal,51.6 µM
same,GI50,SNB-19 CNS,59.9 µM
same,TGI,SNB-19 CNS,> 100 µM
same,GI50,SNB-75 CNS,69.3 µM
same,TGI,SNB-75 CNS,> 100 µM
same,GI50,SW-620 colon,27.9 µM
same,TGI,SW-620 colon,> 100 µM
same,GI50,T-47D breast,39.9 µM
same,TGI,T-47D breast,> 100 µM
same,GI50,TK-10 renal,13.7 µM
same,TGI,TK-10 renal,44.1 µM
same,GI50,U251 CNS,27.4 µM
same,TGI,U251 CNS,> 100 µM
same,GI50,UACC-257 melanoma,18.3 µM
same,TGI,UACC-257 melanoma,44.2 µM
same,GI50,UACC-62 melanoma,22.7 µM
same,TGI,UACC-62 melanoma,54.8 µM
same,GI50,UO-31 renal,45.2 µM
same,TGI,UO-31 renal,> 100 µM
